Measured values published in ChEMBL document CHEMBL5390233, “Design, synthesis and biological evaluation of 2-aminopyrimidine derivatives as potent FLT3 inhibitors” (Bioorg Med Chem Lett, 2023).

How the values were obtained:
BaF3 [1] = assay: Antiproliferative activity against mouse BaF3 cells harboring FLT3-D835V mutant assessed as inhibition of cell growth; type: functional, cell-based
MV4-11 = assay: Antiproliferative activity against human MV4-11 cells assessed as inhibition of cell growth; type: functional, cell-based
BaF3 [2] = assay: Antiproliferative activity against mouse BaF3 cells harboring FLT3-ITD mutant assessed as inhibition of cell growth; type: functional, cell-based
BaF3 [3] = assay: Antiproliferative activity against mouse BaF3 cells harboring FLT3-F691L mutant assessed as inhibition of cell growth; type: functional, cell-based
BaF3 [4] = assay: Antiproliferative activity against mouse BaF3 cells harboring FLT3-D835F mutant assessed as inhibition of cell growth; type: functional, cell-based
BaF3 [5] = assay: Antiproliferative activity against mouse BaF3 cells harboring FLT3-ITD-D835Y mutant assessed as inhibition of cell growth; type: functional, cell-based
MOLM-13 = assay: Antiproliferative activity against human MOLM-13 cells assessed as inhibition of cell growth; type: functional, cell-based
MCF7 = assay: Antiproliferative activity against human MCF7 cells assessed as inhibition of cell growth; type: functional, cell-based
HeLa = assay: Antiproliferative activity against human HeLa cells assessed as inhibition of cell growth; type: functional, cell-based
MM1.S = assay: Antiproliferative activity against human MM1.S cells assessed as inhibition of cell growth; type: functional, cell-based
[6] = Antiproliferative activity against human PBMC cells assessed as inhibition of cell growth; type: toxicity, cell-based
[7] = target: T1, Receptor-type tyrosine-protein kinase FLT3 (Homo sapiens, UniProt P36888); assay: Inhibition of wild type FLT3 (unknown origin)
T1 sequence (P36888 whole entry): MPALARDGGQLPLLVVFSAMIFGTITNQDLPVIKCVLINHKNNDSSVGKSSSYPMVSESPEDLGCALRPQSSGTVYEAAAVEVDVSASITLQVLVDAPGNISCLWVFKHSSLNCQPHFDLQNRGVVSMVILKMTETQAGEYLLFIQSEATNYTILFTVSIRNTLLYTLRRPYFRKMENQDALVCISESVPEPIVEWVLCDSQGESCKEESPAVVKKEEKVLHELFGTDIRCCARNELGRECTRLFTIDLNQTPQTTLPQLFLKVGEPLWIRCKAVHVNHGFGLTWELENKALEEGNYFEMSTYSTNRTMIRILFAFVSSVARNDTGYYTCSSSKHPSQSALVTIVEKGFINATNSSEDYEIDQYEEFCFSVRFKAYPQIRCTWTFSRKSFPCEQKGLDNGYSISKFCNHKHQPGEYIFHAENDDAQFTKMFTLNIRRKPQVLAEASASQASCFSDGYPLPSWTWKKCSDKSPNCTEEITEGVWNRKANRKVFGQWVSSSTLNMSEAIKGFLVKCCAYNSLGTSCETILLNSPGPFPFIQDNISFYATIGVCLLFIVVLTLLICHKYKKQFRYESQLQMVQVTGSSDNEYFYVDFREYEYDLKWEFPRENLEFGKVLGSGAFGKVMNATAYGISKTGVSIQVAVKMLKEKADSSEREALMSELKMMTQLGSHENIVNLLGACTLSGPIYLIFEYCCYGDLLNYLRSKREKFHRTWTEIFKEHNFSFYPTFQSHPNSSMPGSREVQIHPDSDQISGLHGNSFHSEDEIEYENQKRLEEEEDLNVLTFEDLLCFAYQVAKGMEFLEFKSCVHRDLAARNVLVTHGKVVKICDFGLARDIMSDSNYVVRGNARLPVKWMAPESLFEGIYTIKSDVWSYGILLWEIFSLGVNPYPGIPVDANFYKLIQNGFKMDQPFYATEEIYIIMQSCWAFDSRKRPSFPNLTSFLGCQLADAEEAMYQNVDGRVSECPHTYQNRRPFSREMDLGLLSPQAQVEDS

[8] = target: Receptor-type tyrosine-protein kinase FLT3 (Homo sapiens, UniProt P36888, D835Y); assay: Inhibition of FLT3 D835Y mutant (unknown origin)

| SMILES | IC50 (MV4-11; mv4-11) [nM] | IC50 [7] [nM] | IC50 [8] [nM] | other results |
| --- | --- | --- | --- | --- |
| CC1(COc2ccc(Nc3ncc(C(F)(F)F)c(N[C@H]4CC[C@@H](N)CC4)n3)cc2)COC1 | 0.83 | 7.42 | 9.21 | IC50 (BaF3 [1]; baf3): 0.98 nM; IC50 (BaF3 [2]; baf3): 0.91 nM; IC50 (BaF3 [3]; baf3): 4.2 nM; IC50 (BaF3 [4]; baf3): 0.94 nM; IC50 (BaF3 [5]; baf3): 0.95 nM; IC50 (MOLM-13): 10.6 nM; IC50 (MCF7; mcf7): 4.98 µM; IC50 (HeLa; hela): 5.78 µM; IC50 (MM1.S; mm1.s): 2250 nM; IC50 [6]: 7.86 µM |
| CC1(COc2ccc(Nc3ncc(C(F)(F)F)c(NC4CCNCC4)n3)cc2)COC1 |  | 28.9 | 41.7 |  |
| CC1(COc2ccc(Nc3ncc(C(F)(F)F)c(N4CCC(N)CC4)n3)cc2)COC1 |  | 138 | 350 |  |
| CC1(COc2ccc(Nc3ncc(C(F)(F)F)c(N4CCOCC4)n3)cc2)COC1 |  | 339 | 380 |  |
| CC1(COc2ccc(Nc3ncc(C(F)(F)F)c(N4CCC(O)CC4)n3)cc2)COC1 |  | 86 | 142 |  |
| CN1CCN(c2nc(Nc3ccc(OCC4(C)COC4)cc3)ncc2C(F)(F)F)CC1 |  | 339 | 686 |  |
| CC1(COc2ccc(Nc3ncc(C(F)(F)F)c(N[C@H]4CC[C@H](O)CC4)n3)cc2)COC1 |  | 29.6 | 64.6 | IC50 (MV4-11; Homo sapiens, MV4-11): 7.58 nM |
| CC1(COc2cccc(Nc3ncc(C(F)(F)F)c(NC4CCNCC4)n3)c2)COC1 |  | 32.1 | 68.7 |  |
| CC1(COc2ccc(Nc3ncc(C(F)(F)F)c(N4CCNCC4)n3)cc2)COC1 |  | 231 | 351 |  |
| CC1(COc2ccc(Nc3ncc(C(F)(F)F)c(N[C@@H]4CCCNC4)n3)cc2)COC1 | 9.74 | 14.3 | 25.9 |  |
| CC1(COc2ccc(Nc3ncc(C(F)(F)F)c(N[C@H]4CC[C@@H](O)CC4)n3)cc2)COC1 |  | 9.46 | 9.79 | IC50 (MV4-11; Homo sapiens, MV4-11): 42.9 nM |
| CC1(COc2cccc(Nc3ncc(C(F)(F)F)c(N[C@@H]4CCCNC4)n3)c2)COC1 | 17.3 | 16.5 | 24.3 |  |
| CC1(COc2ccc(Nc3ncc(C(F)(F)F)c(NCC4CCNCC4)n3)cc2)COC1 |  | 32.4 | 40.8 |  |
| CC1(COc2cccc(Nc3ncc(C(F)(F)F)c(NCC4CCNCC4)n3)c2)COC1 | 6.93 | 11 | 22.4 |  |
| CC1(COc2ccc(Nc3ncc(C(F)(F)F)c(N[C@H]4CC[C@H](N)CC4)n3)cc2)COC1 | 26.4 | 29.9 | 27.5 |  |
| CCc1nc(C(N)=O)c(Nc2ccc(N3CCC(N4CCN(C)CC4)CC3)c(OC)c2)nc1NC1CCOCC1 [GILTERITINIB] |  |  |  | IC50 (BaF3 [1]; Mus musculus, BaF3): 0.62 nM; IC50 (MV4-11; Homo sapiens, MV4-11): 1.34 nM; IC50 (BaF3 [2]; Mus musculus, BaF3): 0.6 nM; IC50 (BaF3 [3]; Mus musculus, BaF3): 1.05 nM; IC50 (BaF3 [4]; Mus musculus, BaF3): 0.66 nM; IC50 (BaF3 [5]; Mus musculus, BaF3): 0.48 nM; IC50 (MCF7; Homo sapiens, MCF7): 1.3 µM; IC50 (HeLa; Homo sapiens, HeLa): 3.2 µM; IC50 (MM1.S; Homo sapiens, MM1.S): 203 nM; IC50 [6]: 7.03 µM |
